Patent US11117900B2 (Vertex Pharmaceuticals Incorporated, priority 2012, dated 2021)

system: HCT116 colorectal cancer cells; experiment: Cisplatin sensitization assay (96 h MTS cell viability); assay type: cell-based; details: Cisplatin sensitization value;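 also: compound concentration needed to lower the IC50 of Cisplatin alone by a set fold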
Summary of the method: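 The MTS viability read, after 1 h with reagent, followed 96 h of co-treatment at 37° C. in 5% CO2. Both compound and cisplatin were titrated 2-fold from a 10 μM top final concentration in a complete concentration matrix on HCT116 cells. Scores +++/++/+ reflect cisplatin sensitization value ranges.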

Structure (SMILES)	Cisplatin Sensitization Assay
Nc1nn2cc(Cl)cnc2c1C(=O)Nc1cnccc1OC1CC2(CNC2)C1 [I-O-72, N-(4-(2-azaspiro[3.3]heptan-6-yloxy)pyridin-3-yl)-2-amino-6-chloropyrazolo[1,5-a]pyrimidine-3-carboxamide]	+ (Compounds with a Cisplatin sensitization value >0.2 μM but <5 μM are marked with “+.”)
Nc1nn2cc(F)cnc2c1C(=O)Nc1cncc(F)c1N1CCC(C(=O)N2CCNC3CC32)CC1 (stereo not drawn) [I-G-62, N-(4-(4-(2,5-diazabicyclo[4.1.0]heptane-2-carbonyl)piperidin-1-yl)-5-fluoropyridin-3-yl)-2-amino-6-fluoropyrazolo[1,5-a]pyrimidine-3-carboxamide]	+++ (Compounds with a Cisplatin sensitization value of <0.02 μM are marked with “+++.”)
Nc1nn2cc(F)cnc2c1C(=O)Nc1cnccc1N1CCN(C2CCOC2)CC1 (racemic) [I-N-19, (R,S)-2-amino-6-fluoro-N-(4-(4-(tetrahydrofuran-3-yl)piperazin-1-yl)pyridin-3-yl)pyrazolo[1,5-a]pyrimidine-3-carboxamide]	+++ (Compounds with a Cisplatin sensitization value of <0.02 μM are marked with “+++.”)
Nc1nn2cc(F)cnc2c1C(=O)Nc1cnccc1-c1ccc(C(=O)N2CCNCC2)cc1 [I-C-44, 2-amino-6-fluoro-N-(4-(4-(piperazine-1-carbonyl)phenyl)pyridin-3-yl)pyrazolo[1,5-a]pyrimidine-3-carboxamide]	+++ (Compounds with a Cisplatin sensitization value of <0.02 μM are marked with “+++.”)
COC(=O)C1CCN(c2ccncc2NC(=O)c2c(N)nn3cc(Cl)cnc23)CC1 [I-N-74, methyl-1-(3-(2-amino-6-chloropyrazolo[1,5-a]pyrimidine-3-carboxamido)pyridin-4-yl)piperidine-4-carboxylate]	+++ (Compounds with a Cisplatin sensitization value of <0.02 μM are marked with “+++.”)
Nc1nn2cc(F)cnc2c1C(=O)Nc1cnccc1OC1CCOC1 (racemic) [I-O-15, (R,S)-2-amino-6-fluoro-N-(4-((tetrahydrofuran-3-yl)oxy)pyridin-3-yl)pyrazolo[1,5-a]pyrimidine-3-carboxamide]	+++ (Compounds with a Cisplatin sensitization value of <0.02 μM are marked with “+++.”)
Nc1nn2cc(F)cnc2c1C(=O)Nc1cncc(F)c1N1CCC(CN2CCOCC2)CC1 [I-N-149, 2-amino-6-fluoro-N-(5-fluoro-4-(4-(morpholinomethyl)piperidin-1-yl)pyridin-3-yl)pyrazolo[1,5-a]pyrimidine-3-carboxamide]	+++ (Compounds with a Cisplatin sensitization value of <0.02 μM are marked with “+++.”)
Cc1cncc(NC(=O)c2c(N)nn3cc(F)cnc23)c1-n1nccc1C [I-N-237]	+ (Compounds with a Cisplatin sensitization value >0.2 μM but <5 μM are marked with “+.”)
COC1CN(C(=O)C2CCN(c3ccncc3NC(=O)c3c(N)nn4cc(F)cnc34)CC2)C1 [I-G-78, 2-amino-6-fluoro-N-(4-(4-(3-methoxyazetidine-1-carbonyl)piperidin-1-yl)pyridin-3-yl)pyrazolo[1,5-a]pyrimidine-3-carboxamide]	+++ (Compounds with a Cisplatin sensitization value of <0.02 μM are marked with “+++.”)
Nc1nn2cc(F)cnc2c1C(=O)Nc1cncc(F)c1N1CCN(C(=O)C2CC2)CC1 [I-N-276, 2-amino-N-(4-(4-(cyclopropanecarbonyl)piperazin-1-yl)-5-fluoropyridin-3-yl)-6-fluoropyrazolo[1,5-a]pyrimidine-3-carboxamide]	+++ (Compounds with a Cisplatin sensitization value of <0.02 μM are marked with “+++.”)
Cc1ncnn1-c1ccncc1NC(=O)c1c(N)nn2cc(F)cnc12 [I-N-162, 2-amino-6-fluoro-N-(4-(5-methyl-1H-1,2,4-triazol-1-yl)pyridin-3-yl)pyrazolo[1,5-a]pyrimidine-3-carboxamide]	++ (Compounds with a Cisplatin sensitization value >0.02 μM but <0.2 μM are marked with “++.”)
Nc1nn2cc(F)cnc2c1C(=O)Nc1cncc(Cl)c1N1CCCC1 [I-N-281, 2-amino-N-(5-chloro-4-(pyrrolidin-1-yl)pyridin-3-yl)-6-fluoropyrazolo[1,5-a]pyrimidine-3-carboxamide]	+++ (Compounds with a Cisplatin sensitization value of <0.02 μM are marked with “+++.”)
CN1CCN2CCN(c3ccncc3NC(=O)c3c(N)nn4cc(Cl)cnc34)CC2C1 (stereo not drawn) [I-N-61, 2-amino-6-chloro-N-(4-(8-methylhexahydro-1H-pyrazino[1,2-a]pyrazin-2(6H)-yl)pyridin-3-yl)pyrazolo[1,5-a]pyrimidine-3-carboxamide]	+++ (Compounds with a Cisplatin sensitization value of <0.02 μM are marked with “+++.”)
Nc1nn2cc(F)cnc2c1C(=O)Nc1cncc(F)c1N1CCN(C(=O)C2CCOC2)CC1 (stereo not drawn) [I-N-274, 2-amino-6-fluoro-N-(5-fluoro-4-(4-(tetrahydrofuran-3-carbonyl)piperazin-1-yl)pyridin-3-yl)pyrazolo[1,5-a]pyrimidine-3-carboxamide]	+++ (Compounds with a Cisplatin sensitization value of <0.02 μM are marked with “+++.”)
CN1CCN(c2ccncc2NC(=O)c2c(N)nn3cc(Cl)cnc23)CC1(C)C [I-N-53, 2-amino-6-chloro-N-(4-(3,3,4-trimethylpiperazin-1-yl)pyridin-3-yl)pyrazolo[1,5-a]pyrimidine-3-carboxamide]	++ (Compounds with a Cisplatin sensitization value >0.02 μM but <0.2 μM are marked with “++.”)
CN1CCC(NC(=O)C2CCN(c3c(F)cncc3NC(=O)c3c(N)nn4cc(F)cnc34)CC2)C1 (stereo not drawn) [I-G-24, 2-amino-6-fluoro-N-(5-fluoro-4-(4-((1-methylpyrrolidin-3-yl)carbamoyl)piperidin-1-yl)pyridin-3-yl)pyrazolo[1,5-a]pyrimidine-3-carboxamide]	+++ (Compounds with a Cisplatin sensitization value of <0.02 μM are marked with “+++.”)
CN1CCC(c2ccncc2NC(=O)c2c(N)nn3cc(F)cnc23)CC1 [I-C-1, 2-amino-6-fluoro-N-(4-(1-methylpiperidin-4-yl)pyridin-3-yl)pyrazolo[1,5-a]pyrimidine-3-carboxamide]	++ (Compounds with a Cisplatin sensitization value >0.02 μM but <0.2 μM are marked with “++.”)
Nc1nn2cc(F)cnc2c1C(=O)Nc1cnccc1-c1cccnc1F [I-C-35, 2-amino-6-fluoro-N-(2-fluoro-[3,4′-bipyridin]-3′-yl)pyrazolo[1,5-a]pyrimidine-3-carboxamide]	+++ (Compounds with a Cisplatin sensitization value of <0.02 μM are marked with “+++.”)
Nc1nn2cc(F)cnc2c1C(=O)Nc1cnccc1N1CCN(C2CCOCC2)CC1 [I-N-11, 2-amino-6-fluoro-N-(4-(4-(tetrahydro-2H-pyran-4-yl)piperazin-1-yl)pyridin-3-yl)pyrazolo[1,5-a]pyrimidine-3-carboxamide]	++ (Compounds with a Cisplatin sensitization value >0.02 μM but <0.2 μM are marked with “++.”)
Nc1nn2cc(Cl)cnc2c1C(=O)Nc1cnccc1N1CCNCC1 [I-N-88, 2-amino-6-chloro-N-(4-(piperazin-1-yl)pyridin-3-yl)pyrazolo[1,5-a]pyrimidine-3-carboxamide]	++ (Compounds with a Cisplatin sensitization value >0.02 μM but <0.2 μM are marked with “++.”)
Nc1nn2cc(F)cnc2c1C(=O)Nc1cncc(F)c1N1CCC(C(=O)N2CCC2)CC1 [I-G-8, 2-amino-N-(4-(4-(azetidine-1-carbonyl)piperidin-1-yl)-5-fluoropyridin-3-yl)-6-fluoropyrazolo[1,5-a]pyrimidine-3-carboxamide]	+++ (Compounds with a Cisplatin sensitization value of <0.02 μM are marked with “+++.”)
Nc1nn2cc(F)cnc2c1C(=O)Nc1cncc(F)c1N1CCC(N2CCOCC2)CC1 [I-N-189, 2-amino-6-fluoro-N-(5-fluoro-4-(4-morpholinopiperidin-1-yl)pyridin-3-yl)pyrazolo[1,5-a]pyrimidine-3-carboxamide]	+++ (Compounds with a Cisplatin sensitization value of <0.02 μM are marked with “+++.”)
Nc1nn2cc(F)cnc2c1C(=O)Nc1cnccc1N1CCC(C(=O)N2CC3(CCO3)C2)CC1 [I-G-90, N-(4-(4-(1-oxa-6-azaspiro[3.3]heptane-6-carbonyl)piperidin-1-yl)pyridin-3-yl)-2-amino-6-fluoropyrazolo[1,5-a]pyrimidine-3-carboxamide]	+++ (Compounds with a Cisplatin sensitization value of <0.02 μM are marked with “+++.”)
Nc1nn2cc(F)cnc2c1C(=O)Nc1cncc(F)c1N1CCN(C(=O)CN2CCCC2)CC1 [I-N-187, 2-amino-6-fluoro-N-(5-fluoro-4-(4-(2-(pyrrolidin-1-yl)acetyl)piperazin-1-yl)pyridin-3-yl)pyrazolo[1,5-a]pyrimidine-3-carboxamide]	+++ (Compounds with a Cisplatin sensitization value of <0.02 μM are marked with “+++.”)
CCOc1ccncc1NC(=O)c1c(N)nn2cc(CC#N)cnc12 [I-O-28, 2-amino-6-(cyanomethyl)-N-(4-ethoxypyridin-3-yl)pyrazolo[1,5-a]pyrimidine-3-carboxamide]	+++ (Compounds with a Cisplatin sensitization value of <0.02 μM are marked with “+++.”)
CC(=O)N1CCC(c2ccncc2NC(=O)c2c(N)nn3cc(F)cnc23)CC1 [I-C-69, N-(4-(1-acetylpiperidin-4-yl)pyridin-3-yl)-2-amino-6-fluoropyrazolo[1,5-a]pyrimidine-3-carboxamide]	+++ (Compounds with a Cisplatin sensitization value of <0.02 μM are marked with “+++.”)
CN1CCN(c2ccncc2NC(=O)c2c(N)nn3cc(F)cnc23)CC1 [I-N-3, 2-amino-6-fluoro-N-(4-(4-methylpiperazin-1-yl)pyridin-3-yl)pyrazolo[1,5-a]pyrimidine-3-carboxamide]	+++ (Compounds with a Cisplatin sensitization value of <0.02 μM are marked with “+++.”)
